From the supplement of paper PMC4862054

How the values were obtained:
[1] = tested on: CAL-51; settings: 72 h
How it was run: (§1)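 The plates used were 384-well plates holding compound at 5 concentrations in 10-fold steps across a compound-specific 10,000-fold range, into which breast cancer cell lines were seeded in 20 µl suspension. Following 72 h incubation, CellTox Green fluorescence was read at 485/520 nm, and CellTiter-Glo luminescence was read after 10 min at room temperature. Normalisation on each plate used 0.1 % DMSO and a positive kill control. Dose-response curves gave the EC50, which was censored at the top concentration.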

[2] = tested on: HCC1599; test: normalised viability (% of control), CellTiter-Blue; higher = more viable cells (about 100 = DMSO control); settings: incubation time: 72 h
How it was run: (§2)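 After 72 h on compound-loaded 384-well plates, breast cancer cell lines received 2.5 µl CellTiter-Blue reagent for 2 h at 37 °C. Fluorescence at 560/590 nm was scaled per plate so that vehicle was 100 and a positive kill control was 0. The value stands for normalised viability at a single listed concentration of the series.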

[3] = tested on: CAL-120; test: as above; settings: incubation time: 72 h
How it was run: as §2

[4] = tested on: SK-BR-3; test: as above; settings: incubation time: 72 h
How it was run: as §2

[5] = tested on: HCC1599; settings: 72 h
How it was run: (§3)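 Breast cancer cell lines in 20 µl suspension were seeded onto 384-well plates that already held compound dissolved in 5 µl medium and were incubated for 72 h. Viability was measured by adding 2.5 µl CellTiter-Blue for 2 h at 37 °C and reading fluorescence at 560/590 nm. Each plate was normalised to vehicle and a positive kill control and checked by Z'-factor. EC50 was taken from a fitted percent-inhibition dose-response curve, censored at the highest concentration, and rows with a drug sensitivity score of zero were removed.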

[6] = tested on: MDA-MB-468; settings: 72 h
How it was run: as §3

[7] = tested on: HCC1143; settings: 72 h
How it was run: as §3

[8] = tested on: Hs578T; settings: 72 h
How it was run: as §3

[9] = tested on: MDA-MB-231; settings: 72 h
How it was run: as §3

[10] = tested on: BT-474; settings: 72 h
How it was run: as §3

[11] = tested on: MFM-223; settings: 72 h
How it was run: as §3

[12] = tested on: DU-4475; settings: 72 h
How it was run: as §3

[13] = tested on: CAL-85-1; settings: 72 h
How it was run: as §3

[14] = tested on: HDQ-P1; settings: 72 h
How it was run: as §3

[15] = tested on: MDA-MB-453; settings: 72 h
How it was run: as §3

[16] = tested on: HCC1599; settings: 72 h; remark: listed apart in the source
How it was run: as §1

[17] = tested on: Hs578T; settings: 72 h; remark: listed apart in the source
How it was run: as §1

[18] = tested on: MDA-MB-231; settings: 72 h; remark: listed apart in the source
How it was run: as §1

[19] = tested on: DU-4475; settings: 72 h; remark: listed apart in the source
How it was run: as §1

[20] = tested on: CAL-85-1; settings: 72 h; remark: listed apart in the source
How it was run: as §1

[21] = tested on: HCC1937; settings: 72 h
How it was run: as §1

[22] = tested on: HDQ-P1; settings: 72 h; remark: listed apart in the source
How it was run: as §1

[23] = tested on: BT-474; settings: 72 h; remark: listed apart in the source
How it was run: as §1

[24] = tested on: BT-549; settings: 72 h
How it was run: as §1

[25] = tested on: CAL-148; settings: 72 h
How it was run: as §1

[26] = tested on: MCF-10A; settings: 72 h
How it was run: as §1

[27] = tested on: HCC1143; settings: 72 h; remark: listed apart in the source
How it was run: as §1

[28] = tested on: SK-BR-3; settings: 72 h
How it was run: as §1

[29] = tested on: MDA-MB-436; settings: 72 h
How it was run: as §1

[30] = tested on: MDA-MB-453; settings: 72 h; remark: listed apart in the source
How it was run: as §1

[31] = tested on: MFM-223; settings: 72 h; remark: listed apart in the source
How it was run: as §1

[32] = tested on: CAL-85-1; settings: 72 h; remark: listed apart in the source
Description: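 Drug sensitivity and resistance testing (DSRT) of breast cancer cell lines in 384-well plates, 5 concentrations in 10-fold dilutions over a compound-specific 10,000-fold range. After 72 h, cytotoxicity was read by CellTox Green fluorescence and viability by CellTiter-Glo luminescence (multiplexed), normalised to DMSO and benzethonium chloride controls. EC50 is the inflection point of the fitted dose-response curve (bottom asymptote free, so it can be relative for partial curves) and is censored at the highest tested concentration. Rows with DSS 0 (no meaningful response) were excluded.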

Row | Compound | EC50, CellTiter-Glo [1] | normalised viability ([2]; 1000 nM) | normalised viability ([3]; 1000 nM) | normalised viability ([4]; 1000 nM) | normalised viability ([2]; 10 nM) | normalised viability ([2]; 10000 nM) | normalised viability ([3]; 10 nM) | normalised viability ([3]; 10000 nM) | normalised viability ([4]; 10 nM) | normalised viability ([4]; 10000 nM) | EC50, CellTiter-Blue viability [5] | EC50, CellTiter-Blue viability [6] | EC50, CellTiter-Blue viability [7] | EC50, CellTiter-Blue viability [8] | EC50, CellTiter-Blue viability [9] | EC50, CellTiter-Blue viability [10] | EC50, CellTiter-Blue viability [11] | EC50, CellTiter-Blue viability [12] | EC50, CellTiter-Blue viability [13] | EC50, CellTiter-Blue viability [14] | further results
1 | Cc1ccc(F)c(NC(=O)Nc2ccc(-c3cccc4[nH]nc(N)c34)cc2)c1 [Linifanib] | 0.411 µM | 109% | 109% | 123% |  |  |  |  |  |  |  |  |  |  |  |  |  |  |  |  | normalised viability ([2]; 1 nM): 109%; normalised viability ([2]; 100 nM): 108%; normalised viability ([3]; 1 nM): 90.8%; normalised viability ([3]; 100 nM): 91.2%; normalised viability ([4]; 1 nM): 117%; normalised viability ([4]; 100 nM): 112%
2 | COc1cc(Nc2ncc3c(n2)-c2ccc(Cl)cc2C(c2c(F)cccc2OC)=NC3)ccc1C(=O)O [MLN8237] |  | 87.7% | 59.8% | 59.5% | 103% | 66.9% | 104% | 33.6% | 87.3% | 46.8% | 2.05 µM | 0.0762 µM | 0.0687 µM | 0.0418 µM | 0.502 µM | 1.16 µM | 0.388 µM | 0.0575 µM | 0.0296 µM | 0.051 µM | EC50, CellTiter-Blue viability [15]: 0.0111 µM
3 | S=c1[nH]cnc2nc[nH]c12 [Mercaptopurine] |  | 96.3% | 83.7% | 95.6% | 103% | 106% | 88.1% | 47.3% | 107% | 63.5% |  | 0.387 µM |  |  |  |  |  |  |  |  | EC50, CellTiter-Glo [16]: 3.82 µM; EC50, CellTiter-Glo [17]: 0.985 µM; EC50, CellTiter-Glo [18]: 0.906 µM; EC50, CellTiter-Glo [19]: 1.82 µM; EC50, CellTiter-Glo [20]: 4.41 µM; EC50, CellTiter-Glo [21]: 0.833 µM; EC50, CellTiter-Glo [22]: 0.569 µM; EC50, CellTiter-Glo [23]: 3.92 µM
4 | Clc1ccc(C(c2ccccc2Cl)C(Cl)Cl)cc1 (centres undefined) [Mitotane] |  | 88.2% | 87.8% | 104% | 97% | 97.1% | 80.8% | 86% | 105% | 82.3% |  |  |  |  |  |  |  |  |  |  | 
5 | COc1cccc2cc(-c3nc([C@H]4CC[C@H](C(=O)O)CC4)n4ncnc(N)c34)[nH]c12 [OSI-027] | 2.22 µM | 72.4% | 66.4% | 19% | 106% | 47% | 101% | 12.5% | 93.7% | 13.1% | 1.21 µM | 1.96 µM | 1.15 µM | 1.28 µM | 1.67 µM | 0.74 µM | 0.275 µM | 4.63 µM | 1.18 µM | 0.255 µM | EC50, CellTiter-Glo [24]: 2.59 µM; EC50, CellTiter-Glo [25]: 7.16 µM; EC50, CellTiter-Glo [26]: 4.81 µM; EC50, CellTiter-Glo [27]: 1.88 µM; EC50, CellTiter-Glo [17]: 6.72 µM; EC50, CellTiter-Glo [18]: 8.21 µM; EC50, CellTiter-Glo [19]: 1.48 µM; EC50, CellTiter-Glo [20]: 3.8 µM; EC50, CellTiter-Glo [21]: 8.71 µM; EC50, CellTiter-Glo [22]: 0.938 µM; EC50, CellTiter-Glo [28]: 0.594 µM; EC50, CellTiter-Glo [23]: 2.92 µM; EC50, CellTiter-Glo [29]: 8.29 µM; EC50, CellTiter-Glo [30]: 2.92 µM; EC50, CellTiter-Glo [31]: 3.17 µM; EC50, CellTox Green [32]: > 10 µM; EC50, CellTiter-Blue viability [15]: 0.46 µM
